What was measured:
Assay type in all cases: cell-based
U87MG cells = assay: Calcium imaging (Ca2+ imaging): change in the calcium level of the cells, Fura-2 340/380 ratio; details: 100 μM in HEPES buffer, average 340/380 ratio reactivity for 200 seconds relative to TFP (trifluoperazine) as 100%
Description: Calcium Imaging (Ca^2+ Imaging)
Calcium imaging was conducted as follows in order to measure the change in the calcium level in […] (glioblastoma cells) by TFP (trifluoperazine) and the phenothiazine derivative represented by Chemical Formula 1 according to the present invention. First, after placing a polylysine (PDL)-coated coverslip on a 24-well plate, 2×10^4 U87MG cells detached by treating with trypsin were seeded thereupon. On the next day, the coverslip was incubated at room temperature for 1 hour in a Fura-2 solution (5 μM Fura-2 AM, 1 μM pluronic acid in HEPES buffer, pH 7.4) and washed twice with a HEPES buffer (10 mM HEPES, 150 mM NaCl, 3 mM KCl, 2 mM CaCl2, 1 mM MgCl2, 22 mM sucrose, 10 mM glucose, pH 7.4). The washed coverslip was mounted in a bath adapter (bath adapter) and placed under a calcium imaging microscope (Olympus IX71). After connecting a bath line to the bath adapter, the change in the calcium level of the cells was recorded for 300 seconds (4-second intervals; 340 nm, 380 nm, 340/380 nm ratio) by running a calcium imaging program (Imaging Workbench 6.0, Indec Inc.). After flowing a HEPES buffer for 50 seconds for setting of the baseline, a TFP (trifluoperazine) solution or solution of the phenothiazine derivative represented by Chemical Formula 1 (100 μM in HEPES buffer) were flown as test solutions for 100 seconds and then a HEPES buffer was flown again for 150 seconds. All the test solutions were prepared by diluting a 50 mM stock solution to 100 μM with a HEPES buffer. For analysis of the change of intracellular calcium level by the phenothiazine derivative represented by Chemical Formula 1, data files were read using a calcium imaging analysis program (Clampfit 9.2, Axon Inc.) and only the 340/380 ratio values were taken. The values recorded for the first 50 seconds were set to “0” and graphs were rearranged. Then, the average reactivity to the phenothiazine derivative represented by Chemical Formula 1 for 200 seconds was calculated relative to the average reactivity to TFP (trifluoperazine) for 200 seconds as 100%.

lung cancer = assay: cell viability assay, colony formation assay and soft agar colony formation assay
Text: (§1) TFP is a phenothiazine-based compound mainly used as an antipsychotic [see patent document 1]. Antipsychotics are psychiatric drugs primarily used to manage psychosis such as schizophrenia, bipolar disorder, etc. and also to manage non-psychiatric disorder such as sleep. The antipsychotics tend to block receptors in the brain's dopamine pathways but cover a wide range of drug targets. […] Based on this, cell viability assay, matrigel invasion assay, colony formation assay and soft agar colony formation assay were conducted to investigate whether TFP suppresses lung cancer.

cancer cells = assay: matrigel invasion assay
Text: as §1

FC(F)(F)c1ccc2c(c1)N(CCCCN1CCC(N3CCOCC3)CC1)c1ccccc1S2 [Example 41, 4-(1-(4-(2-(trifluoromethyl)-10H-phenothiazine;-10-yl)butyl)piperidin-4-yl)morpholine]
Reactivity (%) (U87MG cells): 120%

FC(F)(F)c1ccc2c(c1)N(CCCCN1CCC(N3CCCC3)CC1)c1ccccc1S2 [Example 42, 10-(4-(4-(pyrrolidin-1-yl)piperidin-1-yl)butyl)-2-(trifluoromethyl)-10H-phenothiazine]
Reactivity (%) (U87MG cells): 134%

FC(F)(F)c1ccc2c(c1)N(CCCCN1CCC(N3CCCCC3)CC1)c1ccccc1S2 [Example 43, 10-(4-(1,4′-bipiperidin-1′-yl)butyl)-2-(trifluoromethyl)-10H-phenothiazine]
Reactivity (%) (U87MG cells): 123%

CSc1ccc2c(c1)N(CCCCN1CCC(N3CCCC3)CC1)c1ccccc1S2 [Example 52, 2-(methylthio)-10-(4-(4-(pyrrolidin-1-yl)piperidin-1-yl)butyl)-10H-phenothiazine]
Reactivity (%) (U87MG cells): 150%

CSc1ccc2c(c1)N(CCCN1CCC(N3CCCC3)CC1)c1ccccc1S2 [Example 55, 2-(methylthio)-10-(3-(4-(pyrrolidin-1-yl)piperidin-1-yl)propyl)-10H-phenothiazine]
Reactivity (%) (U87MG cells): 114%

Clc1ccc2c(c1)N(CCCN1CCC(N3CCCCC3)CC1)c1ccccc1S2 [Example 69, 10-(3-(1,4′-bipiperidin-1′-yl)propyl)-2-chloro-10H-phenothiazine]
Reactivity (%) (U87MG cells): 124%

CSc1ccc2c(c1)N(CCCCN1CCC(N3CCCCC3)CC1)c1ccccc1S2 [Example 72, 10-(4-(1,4′-bipiperidin-1′-yl)butyl)-2-(methylthio)-10H-phenothiazine]
Reactivity (%) (U87MG cells): 131%

CC1CCN(CCCCN2c3ccccc3Sc3ccc(F)cc32)CC1 [Example 76, 2-fluoro-10-(4-(4-methylpiperidin-1-yl)butyl)-10H-phenothiazine]
Reactivity (%) (U87MG cells): 110%

Fc1ccc2c(c1)N(CCCCN1CCC(N3CCCC3)CC1)c1ccccc1S2 [Example 77, 2-fluoro-10-(4-(4-(pyrrolidin-1-yl)piperidin-1-yl)butyl)-10H-phenothiazine]
Reactivity (%) (U87MG cells): 149%

CN1CCN(CCCN2c3ccccc3Sc3ccc(C(F)(F)F)cc32)CC1 [TFP, trifluoperazine]
Reactivity (%) (U87MG cells): 100% | migration and proliferation of lung cancer (lung cancer): suppresses the migration and proliferation of lung cancer | invasion of cancer cells (cancer cells): inhibits the invasion of cancer cells

From patent publication US10035795B1, “Phenothiazine derivatives having CaM inhibitory activity” (KOREA INSTITUTE OF SCIENCE AND TECHNOLOGY, priority 2017, dated 2018)
